Reference: US7875300B2, “Methods for reducing circulating glucose levels” (Rutgers, The State University of New Jersey, priority 2006, dated 2011)
Values joined by “and” are separate entries in the source; they are usually repeats but may differ in a detail not shown here. Identical values can stand only once.

Tests used:
[1] = system: male C57BL/6 mice on high fat diet; experiment: Fasting blood glucose levels after a single gavage in mice on a high fat diet; type: in vivo; conditions: 300 mg, Group 5, gavage
Experimental: The Aframomum melegueta-derived hypoglycemic extract product of Example 1 was tested in vivo for hypoglycemic activity.
(§1) Five week old male C57BL/6 mice (Jackson Laboratories, Bar Harbor, Me.) were placed on either low fat or high fat rodent diets (D12450B, 10% kcal, low fat or D12492, 60% kcal, high fat, Research Diets, New Brunswick, N.J.).
The mice were housed four to a cage under controlled temperature ([…]) and 12 hr light-dark cycles. Food (standard mouse chow, Purina) and water were available on an ad libitum basis for 7 days. The mice were then randomly divided into six groups (n=6) for the study. Five groups of mice were fed the high fat diet for 12 weeks (Groups 1-5), and the sixth group (Group 6) was fed the low fat diet for 12 weeks. Weekly food intake per cage and individual body weights were determined throughout the study.
After 12 weeks, all mice (Groups 1-6) were fasted for 4 hrs. After fasting, Group 1 mice provided a control and were gavaged with saline containing 5% DMSO; mice of Groups 2-4 were gavaged with different concentrations of the hypoglycemic extract product of Example 1 in 5% DMSO; and, Group 5 mice were gavaged with 300 mg/kg of Metformin in 5% DMSO as a positive control. Group 6 mice, which were fed a low fat diet, were gavaged with saline containing 5% DMSO and thus were also used as a control. Blood glucose levels were measured with a One Touch® Ultra® handheld glucometer (Lifescan, Milpitas, Calif.) using One Touch® Ultra® test strips. Mice were deprived of food during testing and the blood glucose levels of whole blood (obtained from a tail nick procedure) were determined at certain times (0, 3, and 5 hours after fasting commenced).
[…] with compositions comprising […]. The blood glucose levels were tested immediately after treatment (0 hours) and then 3 and 5 hours after treatment.

[2] = system: high fat diet-induced diabetic model (male C57BL/6 mice); experiment: Oral glucose tolerance test in high fat diet-induced diabetic model; type: in vivo; conditions: OGTT after 1 wk
Experimental: The Aframomum melegueta-derived hypoglycemic extract product of Example 1 was tested in vivo for hypoglycemic activity using a high fat diet-induced diabetic model.
as §1
The mice were housed individually under controlled temperature (70° F.) and 12 hr light-dark cycles. Food (standard mouse chow, Purina) and water were available on an ad libitum basis for 7 days. The mice were then randomly divided into control Groups 1 and 6 (n=8-10), treatment Groups 2 and 3 (n=6), and two positive control Groups 4 and 5 (n=6) for the study. The control mice continued to receive either a high fat diet or a low fat diet, and the treatment groups were fed the high fat diet for a 14 week period. Two groups of mice were gavaged with PMI006 at a dose of 500 mg/kg daily. As a positive control, Metformin was administered at a dose of 300 mg/kg in two groups of positive control mice.
An oral glucose tolerance test was performed after seven days of treatment. On the test day, animals were fasted for seven hours and glucose (2.0 g/kg) was then orally administered to them. […]
Mice were deprived of food during testing and the blood glucose levels of whole blood (obtained from a tail nick procedure) were determined at certain times. The Aframomum melegueta-derived hypoglycemic extract product of Example 1 was orally administered at a dosage of 500 mg/kg to the two treatment Groups 2 and 3 either 1.5 or 3.0 hours before the glucose challenge. Metformin was orally administered at a dosage of 300 mg/kg to the animals in the positive control Groups 4 and 5 either 1.5 or 3.0 hours before the glucose challenge.

## CN(C)C(=N)N=C(N)N [Metformin]
[1]; Time - 0 hours
  Avg. glucose: 218.5 mg/dL
  glucose (mg/dl), individual animals: 252 mg/dL and 188 mg/dL and 194 mg/dL and 184 mg/dL and 274 mg/dL and 219 mg/dL
[1]; Time - 3 hours
  Avg. glucose: 149.7 mg/dL
  glucose (mg/dl), individual animals: 66 mg/dL and 148 mg/dL and 161 mg/dL and 147 mg/dL and 157 mg/dL and 219 mg/dL
[1]; Time - 5 hours
  Average value: 128.2 mg/dL
  glucose (mg/dl), individual animals: 145 mg/dL and 96 mg/dL and 119 mg/dL and 124 mg/dL and 162 mg/dL and 123 mg/dL
[2]; 300 mg/kg oral 1.5 hr before glucose challenge, Group 4, 0 min
  Plasma glucose: 160 ± 4.9 mg/dL
[2]; 300 mg/kg oral 1.5 hr before glucose challenge, Group 4, 30 min
  Plasma glucose: 235 ± 12.2 mg/dL
[2]; 300 mg/kg oral 1.5 hr before glucose challenge, Group 4, 60 min
  Plasma glucose: 190 ± 11.1 mg/dL
[2]; 300 mg/kg oral 1.5 hr before glucose challenge, Group 4, 90 min
  Plasma glucose: 164 ± 6.0 mg/dL
[2]; 300 mg/kg oral 3 hr before glucose challenge, Group 5, 0 min
  Plasma glucose: 173 ± 13.2 mg/dL
[2]; 300 mg/kg oral 3 hr before glucose challenge, Group 5, 30 min
  Plasma glucose: 207 ± 26.7 mg/dL
[2]; 300 mg/kg oral 3 hr before glucose challenge, Group 5, 60 min
  Plasma glucose: 171 ± 14.8 mg/dL
[2]; 300 mg/kg oral 3 hr before glucose challenge, Group 5, 90 min
  Plasma glucose: 158 ± 6.7 mg/dL
